Results published in publication PMC7349657, “Efficient Targeted Degradation via Reversible and Irreversible Covalent PROTACs” (Journal of the American Chemical Society, 2020).

Assays:
[1] = tested on: Ramos cells; test: Metabolomic quantification of PROTAC cellular concentration; assay type: in vitro ADME, human; details: 2 hours; for Effective cellular concentration: 100 nM compound; for effective cellular concentration relative to IR-2 / effective cellular concentration relative to RC-2: 100 nM
Protocol: Raw data were analyzed using the MaxQuant software suite 1.6.0.16
(www.maxquant.org) with the Andromeda search engine2. The higher-energy collisional dissociation (HCD) MS/MS spe ctra were searched against an in silico tryptic digest of Homo sapiens proteins from the UniProt/Swiss-Prot sequence databas e (v. July 2019), including common contaminant proteins. All MS/MS spectra were searched with the following MaxQuant parameters: acetyl (protein N -terminus) and methionine oxidation as variable modifications; cysteine carbamidomethylation was set as fixed modification for all samples, exc ept for the SDT samples in which case carbamidomethylation was set as variable modification; max 2 missed cleavages; and precursors were initially matched to 4. 5 ppm tolerance and 20 ppm for fragment spectra. Peptide spectrum matches and proteins were automatically filtered to a 1% false discovery rate based on Andromeda score, pep tide length, and individual peptide mass errors. Processing was conducted without a match between runs.
Proteins were identified and quantified based on at least two unique peptides and based on the label -free quantification (LFQ) 3 values reported by Ma xQu ant. Every data set contained three sets of four replicates (one set for DMSO treated samples, one set for 50 nM and one set for 100 nM). Proteins were excluded from analysis if within all three sets, there were less than three samples with directly detect ed and quantified protein. After this filtering step, missing values were replaced from a normal distribution.
Sample preparation: 106 Ramos cells were treated in three replicates with 100 nM compound for 2 hours. Cells were then washed twice by centrifuge at 200 rcf, 4°C for 5 minutes, removing the supernatant and washed with ice cold PBS. Samples were then centrifuged at 200 rcf, 4°C for 5 minutes, then supernatant was removed and samples were frozen at -80°C. Samples were dispersed in 100 µl of PBS. From each sample, 20 µ l were mixed with 20 µl of 10% SDS in 50 mM ammonium bicarbonate, heated to 96 ° C for 5 minutes, and the protein concentration was measured by BCA ass ay. Another 75 µ l were mixed with 0.5 mL of 50% acetonitrile:water, sonicated 3 times 10 second s on ice, centrifuged for 10 minutes at 15000 rpm at 4°C, and the supernatant was transferred to a new tube and lyophilized.
The residue was dissolved in 25% acetonitrile in water in a volume calculated from the BCA assay to obtain a con centration equivalent to 1.09 µg / µl protein. The samples were centrifuged at 21,000 g for 5 min utes to remove insoluble material. Standard curves from 0.1-100 ng/mL for each compound were used for quantitation.
The LC–MS/MS instrument consi sted of an Acquit y I-class UPLC system (Waters) and Xevo TQ-XS triple quadrupole mass spectrometer (Waters) equipped with an electrospray ion source. Chromatographic separation was done on UPLC BEH C18 column (50mm × 2.1mm, 1.7-µm, Waters) using 50-100% gradient of 95%-aqueous acetonitrile with 0.1% formic acid in aqueous 0.1% formic acid during 2.5 minut e s, with a flow rate of 0. 3 mL min−1 and column temperature 30°C. Samples kept at 10°C were automatically injected in a volume of 3µl.
MS parameters (positive ion mode): capillary voltage - 2. 0kV, source temperature - […]
Targeting BTK in CLL cells
After signing an informed consent form approved by the Tel Aviv Medical Center IRB according to the Helsinki Accords, blood samples were collected from pat ients fulfilling the standard criteria for CLL. Peripheral blood mononuclear cells (PBMC) were isolated by Ficoll (Uppsala, Sweden) density-gradient centrifugation. Viable frozen cells were kept in FCS (Biological Industries, Beit-Haemek, Israel) containing 10% DMSO (Merck, Darmstadt, Germany) and stored in liquid nitrogen. Before use, frozen cells were thawed and cultured at 37°C, 5% CO 2, in RPMI medium supplemented with 10% FCS, penicillin, streptomycin, and L-glutamine (all from Biological Industries, Be it-Haemek, Israel.) […]

[2] = tested on: primary mouse B cells; test: B cell activation after anti-IgM stimulation, CD86 staining; assay type: cell-based
Protocol: Lastly, we assessed the ability of the PROTACs to abrogate the activation of primary mouse B cells in response to B cell receptor stimulation. For this purpose, primary B cells were treated with anti-IgM for 18 h,[36],[37] followed by staining for CD86, a B cell activation surface marker (Figure 8; Supporting Figure 7). […]
supplemented with 300 mM imidazole). The His tag was cleaved by the addition of TEV protease with concomitant dialysis overnight into cleavage buffer (50 mM Tris, pH 8.0, 0.5 mM EDTA, 1 mM DTT) at 4°C. The resulting soluble protein was passed ov er Ni -NTA beads to remove the protease and purified further by gel filtration on a HiLoad_16/60_Superdex_75 (GE Healthcare) column equilibrated with 20 mM Tris, pH 8.0, 50 mM NaCl, 1 mM DTT. The pure protein was then flash-frozen in liquid nitrogen and stored at −80°C.
C57BL/6 mice were purchased from Harlan (Rehovot, Israel) and maintained in a pathogen-free facility, experiments were carried on 8-12 weeks old male mice. All exp eriments with mice were approved by the Weizmann Institute Animal Care and Use Committee.
Splenic cells from C57BL/6 mice were isolated by forcing spleen tissue through mesh into PBS containing 2% fetal calf serum and 1 mM EDTA and red blood cells were depleted by lysis buffer. Cells were cultured in 96-well U-b ottom dishes (1x10^6 cells/m L in RPMI 10% […]
nM, 10 nM, 1 nM, 0.1 nM) for 24 hours at 37° C in 5% humidified CO2 incubator. Following a 24 hours incubation, cells were stimulated with anti-IgM overnight (5 µg/mL, Sigma-Aldrich). Subsequently, cells were stained with anti-B220 (clone RA3-6B2, Biolegend) and anti-CD86 (clone GL-1, Biolegend) antibodies for 30 minutes at 4°C. Single cell suspensions were analyzed by a flow cytometer (CytoFlex, Beckman Coulter).
Cells were analyzed by intensity based, label-free mass spectrometry based proteomics.
Sample preparation: 106 Ramos cells were treated in four replicates with either compound or DMSO for 24 hours. Cells were then washed twice by centrifuge at 200 rcf, 4°C for 5 minutes, removing the supernatant and washed with ice cold PBS. Samp les were then centrifuged at 200 rcf, 4°C for 5 minutes, then supernatant was removed and samples were frozen at -80°C.
Samples were dispersed in 75 µl of 50 mM ammonium bicarbonate, and transferred to 1.8 mL glass vials. 75 µl of 10% SDS in 50 mM ammonium bicarbonate were added and the samples were heated to 96° C for 6 minutes. The samples were sonicated thoroughly in a sonication bath until the DNA was sheared as indicated by reduction in viscosity to level enabling easy pipettation. Total protein concentration was estimated using BCA as say and 30 µg from each sample was taken for the experiment.

[3] = anti-IgM stimulation, PROTAC 24 h

| effective cellular concentration relative to IR-2 [1] [times] | effective cellular concentration relative to RC-2 [1] [times] | Compound | Effective cellular concentration [1] | inhibition of B cell activation compared to ibrutinib ([2]; at 1 μM) | inhibition of B cell activation (CD86) [2, 3] | inhibition of B cell activation compared to ibrutinib [2, 3] |
| --- | --- | --- | --- | --- | --- | --- |
| – | – | N#CC(=CCCCCOCCOCCOCCOCCOc1cccc2c1C(=O)N(C1CCC(=O)NC1=O)C2=O)C(=O)N1CCCC(n2nc(-c3ccc(Oc4ccccc4)cc3)c3c(N)ncnc32)C1 (centres unmarked) [RC-2] | 0.93 ± 0.06 pg compound / µg total protein | superior activity to ibrutinib | – | – |
| ~2 | ~10 | Nc1ncnc2c1c(-c1ccc(Oc3ccccc3)cc1)nn2C1CCCN(C(=O)CCCCCCOCCOCCOCCOCCOc2cccc3c2C(=O)N(C2CCC(=O)NC2=O)C3=O)C1 (centres unmarked) [NC-1] | 8.6 ± 2.6 pg compound / µg total protein | – | strongest effect | superior inhibition compared to ibrutinib |
| – | – | Nc1ncnc2c1c(-c1ccc(Oc3ccccc3)cc1)nn2C1CCCN(C(=O)C=CCCCCOCCOCCOCCOCCOc2cccc3c2C(=O)N(C2CCC(=O)NC2=O)C3=O)C1 (centres unmarked) [IR-2] | 4.1 ± 0.7 pg compound / µg total protein | – | strongest effect | superior inhibition compared to ibrutinib |
| ~2 | ~10 | CC(C)(C=C(C#N)C(=O)N1CCCC(n2nc(-c3ccc(Oc4ccccc4)cc3)c3c(N)ncnc32)C1)CCCOCCOCCOCCOCCOc1cccc2c1C(=O)N(C1CCC(=O)NC1=O)C2=O (centres unmarked) [RC-3] | 10.7 ± 3.1 pg compound / µg total protein | superior activity to ibrutinib | – | – |
